Source: publication PMC7321108, “1-Hydroxyanthraquinones Containing Aryl Substituents as Potent and Selective Anticancer Agents” (Molecules, 2020)
Like-named read-outs stand apart in the source and are kept apart here.

Columns and labels:
[1] = test system: SNB-19 glioblastoma cells; test: MTT cytotoxicity assay, SNB-19; type: cell-based; settings: Homo sapiens, 72 h incubation, mean ± SEM of three experiments, read-out: Cytotoxicity (GI50) against SNB-19
Description: (§1) The cytotoxicity of the synthesized series of 4-substituted 5, 13–17, 22, 23, 2-substituted 25–30 and 2,4-disubstituted 1-hydroxy-9,10-anthraquinones 33–38, 40–45 was evaluated against a panel of seven different human cancer cell lines (glioblastoma cancer cells, human prostate cancer cells, T-cellular human leucosis, breast cancer cells) and also a normal cell line of hTERT-immortalized lung fibroblasts, using conventional MTT assay. Doxorubicin (DOX) is clinically used to treat cancer as drug in world and have a very wide antitumor spectrum. That we use them as positive control compounds. The cytotoxicity was determined by measuring the concentration inhibiting human tumor cell viability by 50% (GI50).
(§2) The human cancer cells of the glioblastoma (U-87MG, SNB-19, T98G), prostate cancer cell line (LNCAP, DU-145), the cells of T-cellular human leucosis (MT-4) and human breast cancer cells (MDA-MB-231) were used in this study. The cells were cultured in the RPMI-1640 medium that contained 10% embryonic calf serum, L-glutamine (2 mmol/L), gentamicin ([…]) and lincomycin (30 mkg/mL) in a CO2 incubator at 37 °C. The tested compounds were dissolved in DMSO and added to the cellular culture at the required concentrations. Three wells were used for each concentration. The cells which were incubated without the compounds were used as a control. Cells were placed on 96-well microliter plates and cultivated at 37 °C in 5% CO2/95% air for 72 h. The cell viability was assessed through an MTT [3-(4,5-dimethylthiazol-2-yl)-[…]-2H-tetrazolium bromide] conversion assay. A total of 1% MTT was added to each well. Four hours later, DMSO was added and mixed for 15 min. Optical density (D) of the samples was measured on a BioRad 680 multi-well spectrophotometer (USA) at the wavelength of 450 nm. The 50% cytotoxic dose GI50) of each compound (i.e., the compound concentration that causes the death of 50% of cells in a culture, or decreases the optical density twice as compared to the control wells) was calculated from the data obtained. Statistical processing of the results was performed using the Microsoft Excel-2007, […] 6.0 and GraphPad Prism 5.0 programs. The results are given as an average value ± a deviation from the average (mean ± standard error of the mean (SEM)). Reliability of differences (p) was estimated using the Student t test. The differences with p < 0.05 were considered as reliable. The experimental results are given as the data average values obtained from three independently conducted experiments.

[2] = test system: U-87MG glioblastoma cells; test: MTT cytotoxicity assay, U-87MG; type: cell-based; settings: Homo sapiens, 72 h incubation, mean ± SEM of three experiments, read-out: Cytotoxicity (GI50) against U-87MG
Description: as §1, §2

[3] = test system: T98G glioblastoma cells; test: MTT cytotoxicity assay, T98G; type: cell-based; settings: Homo sapiens, 72 h incubation, mean ± SEM of three experiments, read-out: Cytotoxicity (GI50) against T98G
Description: as §1, §2

[4] = test system: LNCAP prostate cancer cells; test: MTT cytotoxicity assay, LNCAP; type: cell-based, human; settings: 72 h incubation, mean ± SEM of three experiments, read-out: Cytotoxicity (GI50) against LNCAP
Description: as §1, §2

[5] = test system: DU-145 prostate cancer cells; test: MTT cytotoxicity assay, DU-145; type: cell-based, human; settings: Homo sapiens, DU-145, 72 h, 72 h incubation, mean ± SEM of three experiments, read-out: Cytotoxicity (GI50) against DU-145
Description: as §1, §2

[6] = test system: MT-4 cells of T-cellular human leucosis; test: MTT cytotoxicity assay, MT-4; type: cell-based; settings: MT4, 72 h incubation, mean ± SEM of three experiments, read-out: Cytotoxicity (GI50) against MT-4
Description: as §1, §2

[7] = test system: MDA-MB-231 breast cancer cells; test: MTT cytotoxicity assay, MDA-MB-231; type: cell-based; settings: Homo sapiens, 72 h incubation, mean ± SEM of three experiments, read-out: Cytotoxicity (GI50) against MDA-MB-231
Description: as §1, §2

[8] = MTT cytotoxicity assay, normal hTERT-immortalized lung fibroblasts; type: cell-based; settings: human, hTERT-immortalized lung fibroblasts (normal cell line), 72 h incubation, mean ± SEM of three experiments, read-out: Cytotoxicity (GI50) against hTERT Lung Fibroblasts
Description: as §1, §2

| Compound | GI50 [1] [µM] | GI50 [2] [µM] | GI50 [3] [µM] | GI50 ([4]; Homo sapiens, LNCaP, 72 h) [µM] | GI50 [5] [µM] | GI50 [6] [µM] | GI50 [7] [µM] | GI50 at 72 h [8] [µM] | melting point | GI50 [4] [µM] |
| --- | --- | --- | --- | --- | --- | --- | --- | --- | --- | --- |
| O=C1c2ccccc2C(=O)c2c1ccc(-c1cc(F)cc(F)c1)c2O [Compound 29, 2-(3,5-Difluorophenyl)-1-hydroxyanthracene-9,10-dione] | 15.3 ± 0.71 | 34.1 ± 2.18 | 29.6 ± 2.21 | 36.2 ± 2.05 | 13.8 ± 1.05 | 36.6 ± 1.68 | 35.2 ± 1.88 | 28.1 ± 2.12 | 264.3 °C (dec.) |  |
| COc1ccc(-c2cc(Br)c3c(c2O)C(=O)c2ccccc2C3=O)cc1 [Compound 40, 4-Bromo-1-hydroxy-2-(4-methoxyphenyl)anthracene-9,10-dione] | 6.1 ± 0.38 | 10.2 ± 1.03 | 8.1 ± 0.98 | 22.2 ± 1.26 | 7.1 ± 0.72 | 35.6 ± 3.28 | 10.5 ± 1.03 | 16.5 ± 0.46 | 187.1 °C (dec.) |  |
| COc1cc(-c2ccc(O)c3c2C(=O)c2ccccc2C3=O)cc(OC)c1OC [Compound 5, 1-Hydroxy-4-(3,4,5-trimethoxyphenyl)anthracene-9,10-dione] | 6.7 ± 0.47 | > 100 | 72.5 ± 3.21 | 21.1 ± 0.85 | 14.8 ± 0.52 | 42 ± 4.14 | 28.6 ± 1.24 | 28.6 ± 4.54 | 230.5 °C (dec.) |  |
| Cc1ccccc1-c1ccc2c(c1O)C(=O)c1ccccc1C2=O [Compound 26, 1-Hydroxy-2-(o-tolyl)anthracene-9,10-dione] | > 100 | > 100 | > 100 | 74 ± 3.74 | 70.2 ± 1.47 | 80 ± 5.21 | > 100 | 87.5 ± 9.11 | 148.5 °C (dec.) |  |
| COc1cc(-c2cc(-c3ccc(Cl)cc3C(F)(F)F)c3c(c2O)C(=O)c2ccccc2C3=O)cc(OC)c1OC [Compound 45, 4-(4-Chloro-2-(trifluoromethyl)phenyl)-1-hydroxy-2-(3,4,5-trimethoxyphenyl)-anthracene-9,10-dione] | 11.2 ± 1.49 | 18.2 ± 1.06 | 28.3 ± 3.25 | 6.2 to 7.2 | 22.6 ± 0.91 | 31.5 ± 1.52 | 14.2 ± 1.42 | 20.5 ± 2.68 | 226.8 °C (dec.) | 7.2 ± 0.74 |
| COc1cccc(-c2cc(-c3cccc(OC)c3OC)c3c(c2O)C(=O)c2ccccc2C3=O)c1OC [Compound 36, 2,4-Di-(2,3-dimethoxyphenyl)-1-hydroxyanthracene-9,10-dione] | 37 ± 1.41 | 36.8 ± 1.42 | 15.5 ± 0.92 | 16.7 ± 1.86 | 10.6 ± 1.12 | 25.8 ± 0.94 | 22.6 ± 0.86 | 12.2 ± 2.08 | 192.9 °C (dec.) |  |
| O=C1c2ccccc2C(=O)c2c(O)c(-c3ccc(Cl)cc3C(F)(F)F)cc(-c3ccc(Cl)cc3C(F)(F)F)c21 [Compound 39, 2,4-Di-(4-Chloro-2-(trifluoromethyl)phenyl)-1-hydroxyanthracene-9,10-dione] |  |  |  |  |  |  |  |  | 150 to 152 °C |  |
| O=C1c2ccccc2C(=O)c2c(O)c(-c3ccccc3)cc(-c3ccccc3)c21 [Compound 33, 1-Hydroxy-2,4-diphenylanthracene-9,10-dione] | 18.3 ± 1.12 | 56.8 ± 2.36 | 24.6 ± 0.85 | 21.3 ± 1.16 | > 100 | > 100 | 28.3 ± 1.06 | 52.8 ± 8.05 | 225 to 228 °C |  |
| O=C1c2ccccc2C(=O)c2c(-c3ccc(Cl)cc3C(F)(F)F)ccc(O)c21 [Compound 19, 1-(4-Chloro-2-(trifluoromethyl)phenyl)-4-hydroxyanthracene-9,10-dione] |  |  |  |  |  |  |  |  | 186 °C (dec.) |  |
| O=C1c2ccccc2C(=O)c2c(-c3cc(C(F)(F)F)ccc3Cl)ccc(O)c21 [Compound 18, 1-(2-Chloro-5-(trifluoromethyl)phenyl)-4-hydroxyanthracene-9,10-dione] |  |  |  |  |  |  |  |  | 184.3 °C (dec.) |  |
| O=C1c2ccccc2C(=O)c2c(-c3ccco3)ccc(O)c21 [Compound 22, 1-(Furan-2-yl)-4-hydroxyanthracene-9,10-dione] | > 100 | > 100 | > 100 | 21.1 ± 0.85 | 24.2 ± 1.32 | > 100 | > 100 | 52.2 ± 8.01 | 141.8 °C (dec.) |  |
| COc1cc(-c2cc(-c3cc(OC)c(OC)c(OC)c3)c3c(c2O)C(=O)c2ccccc2C3=O)cc(OC)c1OC [Compound 32, 1-Hydroxy-2,4-di-(3,4,5-trimethoxyphenyl)anthracene-9,10-dione] |  |  |  |  |  |  |  |  | 214.9 °C (dec.) |  |
| Cc1ccccc1-c1ccc(O)c2c1C(=O)c1ccccc1C2=O [Compound 14, 1-Hydroxy-4-(o-tolyl)anthracene-9,10-dione] | 38.1 ± 1.15 | > 100 | > 100 | 92 ± 3.93 | 41.1 ± 3.34 | 65 ± 5.49 | > 100 | > 100 |  |  |
| COc1cc(-c2ccc3c(c2O)C(=O)c2ccccc2C3=O)cc(OC)c1OC [Compound 24, 1-Hydroxy-2-(3,4,5-trimethoxyphenyl)anthracene-9,10-dione] |  |  |  |  |  |  |  |  | 190.1 °C (dec.) |  |
| COc1ccc(-c2cc(-c3cc(OC)c(OC)c(OC)c3)c(O)c3c2C(=O)c2ccccc2C3=O)cc1 [Compound 44, 1-Hydroxy-4-(4-methoxyphenyl)-2-(3,4,5-trimethoxyphenyl)anthracene-9,10-dione] | 41.8 ± 5.27 | > 100 | 16.5 ± 1.26 | 14.2 ± 3.12 | 15.2 ± 1.06 | 40.5 ± 6.44 | 19.1 ± 0.98 | 36.2 ± 1.31 |  |  |
| O=C1c2ccccc2C(=O)c2c(O)c(-c3cc(C(F)(F)F)ccc3Cl)cc(-c3cc(C(F)(F)F)ccc3Cl)c21 [Compound 38, 2,4-Di-(2-chloro-5-(trifluoromethyl)phenyl)-1-hydroxyanthracene-9,10-dione] | 39.4 ± 2.16 | > 100 | 7.8 ± 0.56 | > 100 | 6.5 ± 0.89 | > 100 | 32.5 ± 5.37 | 19.4 ± 0.97 |  |  |
